According to patent US20250339549A1, “METHODS FOR THE DETECTION AND TREATMENT OF NON-SMALL-CELL LUNG CANCER” (Board of Regents, The University of Texas System, priority 2022, published 2025):

Assays:
ALPP [1] = assay: ALPP expression in cancer cell lines after drug treatment (immunoblot, immunofluorescence, flow cytometry, qPCR, surface proteomics); assay type: cell-based, human; settings: for ALPP expression after PI3K/AKT or MEK/ERK inhibition: HCC827 and H1650 (FIG. 8D: HCC827 and PC9); for ALPP induction by other EGFR inhibitors (immunoblots): EGFR-mutant H1650 and HCC827; for ALPP expression after drug washout and re-treatment: 48 hours treatment, 48 hours without inhibitor; for ALPP and percentage of ALPP+ cells over time: one to four days, 30 nM; for fold increase in ALPP expression: EGFR TKI treatment (FIG. 7D, FIG. 15B: 30 nM, 48 hours)
Excerpt: ALPP and ALPPL2 expression analysis in whole cell extracts and in the surfaceome compartment was done by mass spectrometry as previously described^19-23. Each dataset was normalized to the total number of spectral counts for each compartment^24.
Images were acquired in z-series on a spinning-disk confocal system.
Probe for ALPP was purchased from Thermo Fisher Scientific (Hs03046558_s1).

[2] = tested on: AKT (Ser473) and ERK (T202/Y204) phosphorylation; assay: Immunoblots for AKT and ERK phosphorylation in LUAD cells; assay type: cell-based, human; settings: H2291 and H1650; EGF 10 or 20 ng/mL, gefitinib 0.5 or 1 μM
ALPP [3] = settings: cited from earlier work
FoxO3a = FoxO3a phosphorylation, localisation and transcription in LUAD cells
HCC827 and PC9 cells [4] = assay: Flow cytometry-based cell cycle analysis; design: species or system human; settings: 30 nM
HCC827 and PC9 cells [5] = settings: 100 nM
ALPP [6] = assay: IHC for ALPP in tumor and normal tissues of gefitinib-treated H1650 tumor-bearing mice; assay type: in vivo, BALB/c nude mice; settings: 50 mg/kg daily for 10 days
Description: IHC staining was performed as previously described 25.

ALPP promoter = assay: ChIP-qPCR for FoxO3a binding to the promoter region of ALPP gene; assay type: cell-based, human; settings: H1650 and HCC827; 1 μM, 6 hours
Excerpt: Subsequently, the DNA-protein complexes were enriched with Protein A/G magnetic Beads and DNA was recovered by the DNA Clean-up column.

ALPP [7] = settings: PC9 xenograft tumors; GSE161584; cited from earlier work
[8] = EGFR mut H1650, 24- and 48-hour treatment

Cc1cc(C(=O)NOCCO)c(Nc2ccc(I)cc2F)n(C)c1=O [AZD8330]
ALPP expression after PI3K/AKT or MEK/ERK inhibition (ALPP [1]; 100 nM, 48 hours): drastic induction of ALPP expression

EGF: epidermal growth factor, the endogenous ligand of EGFR
AKT and ERK phosphorylation [2]: induced AKT phosphorylation at serine 473 (Ser473), and ERK phosphorylation at threonine 202 (T202) and tyrosine 204 (Y204) residues
ALPP expression (immunoblots) (ALPP [1]; [8]): reduced ALPP expression
ALPP expression in EGF-containing growth medium (ALPP [1]; H1650 and H2291, EGF 10 or 20 ng/mL, 24 and 48 hours): drastically reduced

Nc1cc(C(F)(F)F)c(-c2cc(N3CCOCC3)nc(N3CCOCC3)n2)cn1 [NVP-BKM120]
ALPP expression after PI3K/AKT or MEK/ERK inhibition (ALPP [1]; 100 nM, 48 hours): drastic induction of ALPP expression

C=CC(=O)Nc1cc(Nc2nccc(-c3cn(C)c4ccccc34)n2)c(OC)cc1N(C)CCN(C)C [osimertinib]
Ingenuity Pathway Analysis of upstream regulators (ALPP [3]; 4 LUAD cell lines, RNAseq data GSE193258): concordant activation of FoxO3a, but not FoxO1
ALPP gene expression, single cell transcriptomics (ALPP [3]; PC9, 0, 3, 7, 14 days, GSE150949): progressive increase in ALPP gene expression
LUAD cells expressing ALPP (ALPP [3]; PC9, day 14, GSE150949): ~50%
phosphorylation of EGFR and FoxO3a (FoxO3a; HCC827 and PC9, 30 nM): suppressed the phosphorylation of EGFR and FoxO3a
cell cycle arrest in G0/G1 (HCC827 and PC9 cells [4]): statistically significantly increased cell cycle arrest in G0/G1
ALPP induction by other EGFR inhibitors (immunoblots) (ALPP [1]): yielded similar results
ALPP expression (immunoblots) (ALPP [1]; HCC827 and PC9, 30 nM (FIG. 8K)): increased ALPP expression
ALPP expression after drug washout and re-treatment (ALPP [1]; HCC827 and PC9): markedly reduced in the absence of EGFR inhibitors and was restored with the addition of inhibitors
ALPP and percentage of ALPP+ cells over time (ALPP [1]; HCC827 and PC9): gradual and sustained increase of ALPP and percentage of ALPP^+ cells
fold increase in ALPP expression (ALPP [1]; HCC827 cells): ~60 fold
fold increase in ALPP expression (ALPP [1]; PC9 cells): ~110 fold
emergence of drug-resistant clones under continuous TKI treatment (HCC827 and PC9 cells [5]): led to the emergence of drug-resistant clones

COc1cc2ncnc(Nc3ccc(F)c(Cl)c3)c2cc1OCCCN1CCOCC1 [gefitinib]
FoxO3a cytosol/nucleus distribution (FoxO3a; H1650 and HCC827): reduced cytosolic FoxO3a and promoted its nuclear translocation
phosphorylation of FoxO3a (Ser294, Ser425) (FoxO3a; H1650 and HCC827, 30 nM, 6 hours): repressed phosphorylation of FoxO3a at Ser294 and Ser425 residues
transcription of FOXO3A (FoxO3a; LUAD cells): not affected
tumoral ALPP surface expression (IHC) (ALPP [6]): pronounced increases in tumoral ALPP surface expression
ALPP protein staining in other tissues (IHC) (ALPP [6]; normal tissues): negative or showed no appreciable difference compared to the vehicle control
AKT and ERK phosphorylation [2]: repressed phosphorylation of AKT and ERK
ALPP expression (immunoblots) (ALPP [1]; [8]): ALPP upregulation
surface ALPP expression (mass spectrometry, immunofluorescence) (ALPP [1]; EGFR mutant H1650 and PC9, 24- and 48-hour treatment): pronounced upregulation of surface ALPP expression
ALPP expression (immunoblots) (ALPP [1]; EGFR wild-type, KRAS mutant H2291 and H1838): increased ALPP expression, although to a lesser extent
surface ALPP by flow cytometry in gefitinib-resistant cells (ALPP [1]; GR HCC827 and PC9, 100 nM): majority of gefitinib-resistant cells expressed high level of ALPP
ALPP expression in gefitinib-resistant (GR) cells (ALPP [1]; GR HCC827 and PC9, 100 nM, 48 hours): further enhanced ALPP upregulation
ALPP upregulation in ALPP non-expressing cell lines (ALPP [1]; H1395, H1944, HCC2279, 1 μM, 48 hours): did not upregulate ALPP
ALPP mRNA levels (ALPP [1]; H1650 and HCC827): concomitant increases in ALPP mRNA levels
ALPP levels in ALPP-positive LUAD cell lines (ALPP [1]; H2291, H1650, H1838, H1651, 1 μM, 48 hours): exhibited elevated ALPP levels
ALPP expression after drug washout and re-treatment (ALPP [1]; HCC827 and PC9): markedly reduced in the absence of EGFR inhibitors and was restored with the addition of inhibitors
ALPP and percentage of ALPP+ cells over time (ALPP [1]; HCC827 and PC9): gradual and sustained increase of ALPP and percentage of ALPP^+ cells
ALPP expression (immunoblots) (ALPP [1]; TNBC cell lines BT20 and HCC1937, 1 μM): increased ALPP expression
FoxO3a binding to ALPP promoter (ChIP-qPCR) (ALPP promoter): induced FoxO3a binding to ALPP promoter sequences

C#Cc1cccc(Nc2ncnc3cc(OCCOC)c(OCCOC)cc23)c1 [erlotinib]
ALPP mRNA expression in xenograft tumors (ALPP [7]): increased ALPP mRNA expression in erlotinib-responding tumors compared with treatment naïve tumors

CCn1cc(C(=O)O)c(=O)c2c(N)c(F)c(NC3CCCCC3)cc21 [AS1842856]
ALPP protein expression after FoxO inhibition (ALPP [1]; LUAD cells (HCC827 and PC9), 48 hours): diminished ALPP protein expression
effect on gefitinib-mediated ALPP upregulation (ALPP [1]; LUAD cells (HCC827 and PC9), with gefitinib, 48 hours): blunted gefitinib-mediated ALPP upregulation

CS(=O)(=O)CCNCc1ccc(-c2ccc3ncnc(Nc4ccc(OCc5cccc(F)c5)c(Cl)c4)c3c2)o1 [lapatinib]
ALPP induction by other EGFR inhibitors (immunoblots) (ALPP [1]): yielded similar results

O=C(Nc1ccc2[nH]nc(-c3ccncc3)c2c1)[C@@H]1CCN(CC(=O)N2CCN(c3ccc(-c4ncccn4)cc3)CC2)C1 [SCH772984]
ALPP expression after PI3K/AKT or MEK/ERK inhibition (ALPP [1]; 100 nM, 48 hours): drastic induction of ALPP expression
